# Experimental data as given in patent US20060040957A1, “BICYCLIC PYRIMIDINE MATRIX METALLOPROTEINASE INHIBITORS” (priority 2001, published 2006).
# pIC50: −log10 of the molar value. Structures can show the parent of a compound that is named as a salt. Where two headings read alike, the source gives them in different places.
# How the values were obtained:
# Type in all cases: biochemical
# [1] = target: MMP-14CD (catalytic domain of MMP-14) (Homo sapiens, UniProt P50281); experiment: Thiopeptolide substrate hydrolysis assay, MMP-14CD; details: HEPES pH 7.0, 22° C., read-out: IC50 (μM) Versus Certain MMPs: MMP-14 CD
# Excerpt: (§1) The invention compounds of Formula I have been evaluated in standard assays for their ability to inhibit the catalytic activity of various MMP enzymes.
# (§2) Thiopeptolide substrates show virtually no decomposition or hydrolysis at or below neutral pH in the absence of a matrix metalloproteinase enzyme.
# (§3) Several representative compounds have been evaluated for their ability to inhibit various matrix metalloproteinase enzymes.
# [2] = target: T1, MMP-2FL (full length Gelatinase A) (Homo sapiens, UniProt P08253); experiment: Thiopeptolide substrate hydrolysis assay, MMP-2FL; details: HEPES pH 7.0, 22° C., read-out: IC50 (μM) Versus Certain MMPs: MMP-02 FL
# T1 sequence (P08253 110-660): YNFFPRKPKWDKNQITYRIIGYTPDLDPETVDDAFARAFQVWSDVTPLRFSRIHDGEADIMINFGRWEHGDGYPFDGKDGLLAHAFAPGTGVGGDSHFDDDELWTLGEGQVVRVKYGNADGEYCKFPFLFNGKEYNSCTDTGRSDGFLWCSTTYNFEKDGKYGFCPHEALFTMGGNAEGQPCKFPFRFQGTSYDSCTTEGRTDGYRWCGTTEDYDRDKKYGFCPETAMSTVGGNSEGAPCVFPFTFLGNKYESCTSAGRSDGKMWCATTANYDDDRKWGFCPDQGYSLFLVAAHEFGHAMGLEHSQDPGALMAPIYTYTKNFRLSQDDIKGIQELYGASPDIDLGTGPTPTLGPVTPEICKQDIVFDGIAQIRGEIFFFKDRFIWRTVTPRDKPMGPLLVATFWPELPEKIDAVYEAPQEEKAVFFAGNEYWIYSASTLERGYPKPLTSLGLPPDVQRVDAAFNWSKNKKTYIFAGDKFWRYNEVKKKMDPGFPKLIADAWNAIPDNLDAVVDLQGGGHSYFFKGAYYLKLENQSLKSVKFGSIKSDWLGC
# Excerpt: as §1, §2, §3
# [3] = target: T2, MMP-7FL (full length matrilysin) (Homo sapiens, UniProt P09237); experiment: Thiopeptolide substrate hydrolysis assay, MMP-7FL; details: HEPES pH 7.0, 22° C., read-out: IC50 (μM) Versus Certain MMPs: MMP-07 FL
# T2 sequence (P09237 95-267): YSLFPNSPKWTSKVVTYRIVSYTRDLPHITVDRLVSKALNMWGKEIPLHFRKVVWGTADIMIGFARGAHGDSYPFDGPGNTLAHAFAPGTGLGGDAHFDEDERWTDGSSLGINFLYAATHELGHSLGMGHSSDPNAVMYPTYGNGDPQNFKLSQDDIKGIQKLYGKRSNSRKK
# Excerpt: as §1, §2, §3
# [4] = target: MMP-13CD (catalytic domain of collagenase 3) (Homo sapiens, UniProt P45452); experiment: Thiopeptolide substrate hydrolysis assay, MMP-13CD
# Excerpt: as §2
# [5] = target: MMP-9FL (full length Gelatinase B) (Homo sapiens, UniProt P14780); experiment: Thiopeptolide substrate hydrolysis assay, MMP-9FL; details: HEPES pH 7.0, 22° C., read-out: IC50 (μM) Versus Certain MMPs: MMP-09 FL
# Excerpt: as §1, §2, §3
# [6] = thiopeptolide substrate, HEPES pH 7.0, 22° C., read-out: IC50 (μM) Versus Certain MMPs: MMP-13 CD
# [7] = IC50 (μM) Versus Certain MMPs: MMP-13 CD, thiopeptolide substrate, HEPES pH 7.0, 22° C.
# MMP-9FL (full length Gelatinase B), sequence (P14780 94-707, species assumed): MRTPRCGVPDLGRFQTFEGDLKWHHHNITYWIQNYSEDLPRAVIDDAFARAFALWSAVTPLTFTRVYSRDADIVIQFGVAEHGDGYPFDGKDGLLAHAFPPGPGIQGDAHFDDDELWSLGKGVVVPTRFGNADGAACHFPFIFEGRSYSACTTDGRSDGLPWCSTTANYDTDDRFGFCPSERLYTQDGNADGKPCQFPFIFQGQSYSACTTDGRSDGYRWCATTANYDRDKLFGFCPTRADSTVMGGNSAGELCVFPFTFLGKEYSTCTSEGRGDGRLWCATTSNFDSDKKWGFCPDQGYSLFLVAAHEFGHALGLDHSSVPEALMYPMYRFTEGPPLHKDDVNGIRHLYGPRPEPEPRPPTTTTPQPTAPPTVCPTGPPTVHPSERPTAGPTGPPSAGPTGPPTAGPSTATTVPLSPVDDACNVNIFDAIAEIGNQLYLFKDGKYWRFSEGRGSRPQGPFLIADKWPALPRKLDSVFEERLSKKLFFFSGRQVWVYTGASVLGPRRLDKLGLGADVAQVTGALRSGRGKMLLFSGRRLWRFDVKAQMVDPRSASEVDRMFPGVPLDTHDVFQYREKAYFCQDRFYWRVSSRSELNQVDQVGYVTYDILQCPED
"IC50 [4, 6] [µM]",SMILES,further results
> 30,"Cc1c(=O)n(Cc2ccccc2)c(=O)n2cc(C(=S)NCc3ccccc3)sc12 [Example 24, 6-Benzyl-8-methyl-5,7-dioxo-6,7-dihydro-5H-thiazolo[3,2-c]pyrimidine-2-carbothioic acid benzylamide]",–
54,"Cc1c(=O)n(Cc2ccccc2)c(=O)n2cc(C(=O)NCC3CCCO3)sc12 (stereo not shown) [Example 110, 6-Benzyl-8-methyl-5,7-dioxo-6,7-dihydro-5H-thiazolo[3,2-c]pyrimidine-2-carboxylic acid(tetrahydro-furan-2-ylmethyl)-amide]",–
> 100,"C#CCNC(=O)c1cn2c(=O)n(Cc3ccccc3)c(=O)c(C)c2s1 [Example 40, 6-Benzyl-8-methyl-5,7-dioxo-6,7-dihydro-5H-thiazolo[3,2-c]pyrimidine-2-carboxylic acid prop-2-ynylamide]",–
> 30,"Cc1c(=O)n(Cc2ccccc2)c(=O)n2cc(C(=O)NCc3ccc(Cl)cc3Cl)sc12 [Example 27, 6-Benzyl-8-methyl-5,7-dioxo-6,7-dihydro-5H-thiazolo[3,2-c]pyrimidine-2-carboxylic acid 2,4-dichloro-benzylamide]",–
> 100,"Cc1nc(CNC(=O)c2cn3c(=O)n(Cc4ccccc4)c(=O)c(C)c3s2)cs1 [Example 52, 6-Benzyl-8-methyl-5,7-dioxo-6,7-dihydro-5H-thiazolo[3,2-c]pyrimidine-2-carboxylic acid(2-methyl-thiazol-4-ylmethyl)-amide hydrochloride]",–
> 100,"Cc1c(=O)n(Cc2ccccc2)c(=O)n2cc(C(=O)NCc3cscn3)sc12 [Example 35, 6-Benzyl-8-methyl-5,7-dioxo-6,7-dihydro-5H-thiazolo[3,2-c]pyrimidine-2-carboxylic acid(thiazol-4-ylmethyl)-amide hydrochloride]",–
> 100,"Cc1c(=O)n(Cc2ccccc2)c(=O)n2cc(C(=O)NCC3CCNCC3)sc12 [Example 45, 6-Benzyl-8-methyl-5,7-dioxo-6,7-dihydro-5H-thiazolo[3,2-c]pyrimidine-2-carboxylic acid(piperidin-4-ylmethyl)-amide hydrochloride]",–
> 100,"Cc1c(=O)n(Cc2ccccc2)c(=O)n2cc(C(=O)O)sc12 [Example 33, 6-Benzyl-8-methyl-5,7-dioxo-6,7-dihydro-5H-thiazolo[3,2-c]pyrimidine-2-carboxylic acid]",–

# Second part, the compound before the results:
SMILES,"IC50 [4, 6] [µM]",further results
"Cc1c(=O)n(Cc2ccc(C#N)cc2)c(=O)n2cc(C(=O)NCc3ccncc3)sc12 [Example 85, 6-(4-Cyano-benzyl)-8-methyl-5,7-dioxo-6,7-dihydro-5H-thiazolo[3,2-c]pyrimidine-2-carboxylic acid(pyridin-4-ylmethyl)-amide hydrochloride]",0.0547,IC50 [1]: > 30 µM; IC50 [2]: > 30 µM; IC50 [3]: > 30 µM; IC50 [5]: > 30 µM
"Cc1c(=O)n(CCS(=O)(=O)c2ccc(Cl)cc2)c(=O)n2cc(C(=O)NCc3ccncc3)sc12 [Example 83, 6-[2-(4-Chloro-benzenesulfonyl)-ethyl]-8-methyl-5,7-dioxo-6,7-dihydro-5H-thiazolo[3,2-c]pyrimidine-2-carboxylic acid(pyridin-4-ylmethyl)-amide hydrochloride]",2.6,–
"Cc1c(=O)n(Cc2nn[nH]n2)c(=O)n2cc(C(=O)NCc3ccc(F)cc3)sc12 [Example 66, 8-Methyl-5,7-dioxo-6-(2H-tetrazol-5-ylmethyl)-6,7-dihydro-5H-thiazolo[3,2-c]pyrimidine-2-carboxylic acid 4-fluoro-benzylamide]",14,–
"COC(=O)c1cn2c(=O)n(Cc3ccccc3)c(=O)c(C)c2s1 [Example 33a, 6-Benzyl-8-methyl-5,7-dioxo-6,7-dihydro-5H-thiazolo[3,2-c]pyrimidine-2-carboxylic acid methyl ester]",–,"IC50 (μM) Versus Certain MMPs: MMP-13 CD ([4]; thiopeptolide substrate, HEPES pH 7.0, 22° C.): none"
"O=c1cc2sccn2c(=O)n1Cc1ccncc1 [6-(4-Pyridylmethyl)-thiazolo[3,2-c]pyrimidine-5,7,dione]",> 100,–
"Cc1c(=O)n(Cc2ccccc2)c(=O)n2cc(C(=O)NCc3cnn(C)c3)sc12 [Example 39, 6-Benzyl-8-methyl-5,7-dioxo-6,7-dihydro-5H-thiazolo[3,2-c]pyrimidine-2-carboxylic acid(1-methyl-1H-pyrazol-4-ylmethyl)-amide]",–,"IC50 [4, 7]: 2.3 µM"
"Cc1c(=O)n(CCS(=O)(=O)c2ccccc2)c(=O)n2cc(C(=O)NCc3ccc(F)cc3)sc12 [Example 96, 6-(2-Benzenesulfonyl-ethyl)-8-methyl-5,7-dioxo-6,7-dihydro-5H-thiazolo[3,2-c]pyrimidine-2-carboxylic acid 4-fluoro-benzylamide]",1.2,–
"C=C(C)Cn1c(=O)c(C)c2sc(C(=O)NCc3ccc(F)cc3)cn2c1=O [Example 93, 8-Methyl-6-(2-methyl-allyl)-5,7-dioxo-6,7-dihydro-5H-thiazolo[3,2-c]pyrimidine-2-carboxylic acid 4-fluoro-benzylamide]",–,"IC50 [4, 7]: 1.55 µM"
"Cc1cccc(CNC(=O)c2cn3c(=O)n(Cc4ccccc4)c(=O)c(C)c3s2)n1 [Example 41, 6-Benzyl-8-methyl-5,7-dioxo-6,7-dihydro-5H-thiazolo[3,2-c]pyrimidine-2-carboxylic acid(6-methyl-pyridin-2-ylmethyl)-amide]",–,"IC50 [4, 7]: 6.2 µM"
"Cc1c(=O)n(Cc2ccc(S(=O)(=O)N3CCOCC3)cc2)c(=O)n2ccsc12 [Example 108, 8-Methyl-6-[4-(morpholine-4-sulfonyl)-benzyl]-thiazolo[3,2-c]pyrimidine-5,7-dione]",> 100,–
"CCC(CC)n1c(=O)c(C)c2sc(C(=O)NCc3ccc(F)cc3)cn2c1=O [Example 94, 6-(1-Ethyl-propyl)-8-methyl-5,7-dioxo-6,7-dihydro-5H-thiazolo[3,2-c]pyrimidine-2-carboxylic acid 4-fluoro-benzylamide]",> 30,–
"COC(=O)c1sc2cc(=O)n(Cc3ccccc3)c(=O)n2c1C [Example 26, 6-Benzyl-3-methyl-5,7-dioxo-6,7-dihydro-5H-thiazolo[3,2-c]pyrimidine-2-carboxylic acid methyl ester]",> 100,–
"Cc1c(=O)n(Cc2ccc(C(=O)O)cc2)c(=O)n2cc(C(=O)NCc3ccc(F)cc3)sc12 [Example 58, 4-[2-(4-Fluoro-benzylcarbamoyl)-8-methyl-5,7-dioxo-7H-thiazolo[3,2-c]pyrimidin-6-ylmethyl]-benzoic acid]",0.00222,IC50 [1]: > 100 µM; IC50 [2]: > 100 µM; IC50 [3]: > 100 µM; IC50 [5]: > 100 µM
"Cc1c(=O)n(Cc2ccccc2)c(=O)n2cc(C(=O)NCc3ccccn3)sc12 [Example 47, 6-Benzyl-8-methyl-5,7-dioxo-6,7-dihydro-5H-thiazolo[3,2-c]pyrimidine-2-carboxylic acid(pyridin-2-ylmethyl)-amide hydrochloride]",–,"IC50 [4, 7]: 9.9 µM"
"O=C(c1ccccc1)n1c(=O)cc2sccn2c1=O [6-Benzoyl-thiazolo[3,2-c]pyrimidine-5,7-dione]",> 100,–
"Cc1c(=O)n(CCCCCC#N)c(=O)n2cc(C(=O)NCc3ccc(F)cc3)sc12 [Example 89, 6-(5-Cyano-pentyl)-8-methyl-5,7-dioxo-6,7-dihydro-5H-thiazolo[3,2-c]pyrimidine-2-carboxylic acid 4-fluoro-benzylamide]",1.08,–
"Cc1c(=O)n(Cc2ccccc2)c(=O)n2cc(C(=O)NCc3cn4ccsc4n3)sc12 [Example 38, 6-Benzyl-8-methyl-5,7-dioxo-6,7-dihydro-5H-thiazolo[3,2-c]pyrimidine-2-carboxylic acid(imidazo[2,1-b]thiazol-6-ylmethyl)-amide]",–,"IC50 [4, 7]: 25 µM"
"COC(=O)Nc1cc(Cn2c(=O)c(C)c3sc(C(=O)NCc4ccc(F)cc4)cn3c2=O)on1 [Example 111, {5-[2-(4-Fluoro-benzylcarbamoyl)-8-methyl-5,7-dioxo-7H-thiazolo[3,2-c]pyrimidine-6-ylmethyl]-isoxazol-3-yl}-carbamic acid methyl ester]",–,"pIC50 ([4]; running text after Table 1, read-out: IC50 inhibition of MMP-13CD): 6.77"
